In article PMC7156458, “Synthetic biology based construction of biological activity-related library of fungal decalin-containing diterpenoid pyrones” (Nature Communications, 2020):

Target: Aβ42 (Homo sapiens, UniProt P05067)
Test: Th-T (thioflavin-T) assay of Aβ42 aggregation
Assay type: biochemical
Conditions: for Th-T fluorescence of Aβ42 (sheet Fig. 7a), mean of three wells: head suffix _50 (concentration 50); for Th-T assay plate reading, mean of three wells (Supplementary Fig. 47): source data, Ab alone and No Ab as controls; for Th-T fluorescence, mean of three wells: Supplementary Fig. 47 source data

Aβ42, sequence (P05067 672-713): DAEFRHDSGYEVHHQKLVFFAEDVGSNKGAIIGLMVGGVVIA

C=C1CCC2C(C)(CCC=C(C)C)C(O)CCC2(C)C1Cc1c(OC)oc(C)c(C(=O)OC)c1=O (stereo not drawn) [Compound 14]
Th-T fluorescence of Aβ42 (sheet Fig. 7a), mean of three wells (reading M73): 2.8491
Th-T fluorescence of Aβ42 (sheet Fig. 7a), mean of three wells (reading M74): 2.743
Th-T fluorescence of Aβ42 (sheet Fig. 7a), mean of three wells (reading M75): 2.678
Th-T fluorescence of Aβ42 (sheet Fig. 7a), mean of three wells (reading M76): 2.6047
Th-T fluorescence of Aβ42 (sheet Fig. 7a), mean of three wells (reading M77): 2.524
Th-T fluorescence of Aβ42 (sheet Fig. 7a), mean of three wells (reading M78): 2.476
Th-T fluorescence of Aβ42 (sheet Fig. 7a), mean of three wells (reading M79): 2.356
Th-T fluorescence of Aβ42 (sheet Fig. 7a), mean of three wells (reading M80): 2.329
Th-T fluorescence of Aβ42 (sheet Fig. 7a), mean of three wells (reading M81): 2.257
Th-T fluorescence of Aβ42 (sheet Fig. 7a), mean of three wells (reading M82): 2.201
Th-T fluorescence of Aβ42 (sheet Fig. 7a), mean of three wells (reading M83): 2.154
Th-T fluorescence of Aβ42 (sheet Fig. 7a), mean of three wells (reading M84): 2.095
Th-T assay plate reading, mean of three wells (Supplementary Fig. 47) (measurement M1): 0.2816
Th-T assay plate reading, mean of three wells (Supplementary Fig. 47) (measurement M2): 0.2424
Th-T assay plate reading, mean of three wells (Supplementary Fig. 47) (measurement M3): 0.24
Th-T assay plate reading, mean of three wells (Supplementary Fig. 47) (measurement M4): 0.2537
Th-T assay plate reading, mean of three wells (Supplementary Fig. 47) (measurement M5): 0.2619
Th-T assay plate reading, mean of three wells (Supplementary Fig. 47) (measurement M6): 0.2823
Th-T assay plate reading, mean of three wells (Supplementary Fig. 47) (measurement M7): 0.2966
Th-T assay plate reading, mean of three wells (Supplementary Fig. 47) (measurement M8): 0.3078
Th-T assay plate reading, mean of three wells (Supplementary Fig. 47) (measurement M9): 0.3225
Th-T assay plate reading, mean of three wells (Supplementary Fig. 47) (measurement M10): 0.3472
Th-T assay plate reading, mean of three wells (Supplementary Fig. 47) (measurement M11): 0.3856
Th-T assay plate reading, mean of three wells (Supplementary Fig. 47) (measurement M12): 0.4563
Th-T assay plate reading, mean of three wells (Supplementary Fig. 47) (measurement M13): 0.5559
Th-T assay plate reading, mean of three wells (Supplementary Fig. 47) (measurement M14): 0.6968
Th-T assay plate reading, mean of three wells (Supplementary Fig. 47) (measurement M15): 0.8869
Th-T assay plate reading, mean of three wells (Supplementary Fig. 47) (measurement M16): 1.062
Th-T fluorescence, mean of three wells (Fig. 7a) (reading M107, compound at 10 (head suffix _10)): 2.856
Th-T fluorescence, mean of three wells (Fig. 7a) (reading M107, compound at 20 (head suffix _20)): 1.717
Th-T fluorescence, mean of three wells (Fig. 7a) (reading M107, compound at 50 (head suffix _50)): 1.263
Th-T fluorescence, mean of three wells (Fig. 7a) (reading M108, compound at 10 (head suffix _10)): 2.848
Th-T fluorescence, mean of three wells (Fig. 7a) (reading M108, compound at 20 (head suffix _20)): 1.693
Th-T fluorescence, mean of three wells (Fig. 7a) (reading M108, compound at 50 (head suffix _50)): 1.239
Th-T fluorescence, mean of three wells (Fig. 7a) (reading M109, compound at 10 (head suffix _10)): 2.86
Th-T fluorescence, mean of three wells (Fig. 7a) (reading M109, compound at 20 (head suffix _20)): 1.668
Th-T fluorescence, mean of three wells (Fig. 7a) (reading M109, compound at 50 (head suffix _50)): 1.221
Th-T fluorescence, mean of three wells (Fig. 7a) (reading M110, compound at 10 (head suffix _10)): 2.89
Th-T fluorescence, mean of three wells (Fig. 7a) (reading M110, compound at 20 (head suffix _20)): 1.691
Th-T fluorescence, mean of three wells (Fig. 7a) (reading M110, compound at 50 (head suffix _50)): 1.198
Th-T fluorescence, mean of three wells (Fig. 7a) (reading M111, compound at 10 (head suffix _10)): 2.887
Th-T fluorescence, mean of three wells (Fig. 7a) (reading M111, compound at 20 (head suffix _20)): 1.674
Th-T fluorescence, mean of three wells (Fig. 7a) (reading M111, compound at 50 (head suffix _50)): 1.171
Th-T fluorescence, mean of three wells (Fig. 7a) (reading M112, compound at 10 (head suffix _10)): 2.867
Th-T fluorescence, mean of three wells (Fig. 7a) (reading M112, compound at 20 (head suffix _20)): 1.668
Th-T fluorescence, mean of three wells (Fig. 7a) (reading M112, compound at 50 (head suffix _50)): 1.153
Th-T fluorescence, mean of three wells (Fig. 7a) (reading M113, compound at 10 (head suffix _10)): 2.843
Th-T fluorescence, mean of three wells (Fig. 7a) (reading M113, compound at 20 (head suffix _20)): 1.686
Th-T fluorescence, mean of three wells (Fig. 7a) (reading M113, compound at 50 (head suffix _50)): 1.142
Th-T fluorescence, mean of three wells (Fig. 7a) (reading M114, compound at 10 (head suffix _10)): 2.88
Th-T fluorescence, mean of three wells (Fig. 7a) (reading M114, compound at 20 (head suffix _20)): 1.678
Th-T fluorescence, mean of three wells (Fig. 7a) (reading M114, compound at 50 (head suffix _50)): 1.107
Th-T fluorescence, mean of three wells (Fig. 7a) (reading M115, compound at 10 (head suffix _10)): 2.899
Th-T fluorescence, mean of three wells (Fig. 7a) (reading M115, compound at 20 (head suffix _20)): 1.649
Th-T fluorescence, mean of three wells (Fig. 7a) (reading M115, compound at 50 (head suffix _50)): 1.096
Th-T fluorescence, mean of three wells (Fig. 7a) (reading M116, compound at 10 (head suffix _10)): 2.891
Th-T fluorescence, mean of three wells (Fig. 7a) (reading M116, compound at 20 (head suffix _20)): 1.656
Th-T fluorescence, mean of three wells (Fig. 7a) (reading M116, compound at 50 (head suffix _50)): 1.094
Th-T fluorescence, mean of three wells (Fig. 7a) (reading M117, compound at 10 (head suffix _10)): 2.891
Th-T fluorescence, mean of three wells (Fig. 7a) (reading M117, compound at 20 (head suffix _20)): 1.6485
Th-T fluorescence, mean of three wells (Fig. 7a) (reading M117, compound at 50 (head suffix _50)): 1.063
Th-T fluorescence, mean of three wells (Fig. 7a) (reading M118, compound at 10 (head suffix _10)): 2.882
Th-T fluorescence, mean of three wells (Fig. 7a) (reading M118, compound at 20 (head suffix _20)): 1.636
Th-T fluorescence, mean of three wells (Fig. 7a) (reading M118, compound at 50 (head suffix _50)): 1.027
Th-T fluorescence, mean of three wells (Fig. 7a) (reading M119, compound at 10 (head suffix _10)): 2.895
Th-T fluorescence, mean of three wells (Fig. 7a) (reading M119, compound at 20 (head suffix _20)): 1.645
Th-T fluorescence, mean of three wells (Fig. 7a) (reading M119, compound at 50 (head suffix _50)): 1.02
Th-T fluorescence, mean of three wells (Fig. 7a) (reading M120, compound at 10 (head suffix _10)): 2.912
Th-T fluorescence, mean of three wells (Fig. 7a) (reading M120, compound at 20 (head suffix _20)): 1.644
Th-T fluorescence, mean of three wells (Fig. 7a) (reading M120, compound at 50 (head suffix _50)): 1.015
Th-T fluorescence, mean of three wells (Fig. 7a) (reading M121, compound at 10 (head suffix _10)): 2.89
Th-T fluorescence, mean of three wells (Fig. 7a) (reading M121, compound at 20 (head suffix _20)): 1.621
Th-T fluorescence, mean of three wells (Fig. 7a) (reading M121, compound at 50 (head suffix _50)): 1.008
Th-T fluorescence, mean of three wells (Fig. 7a) (reading M122, compound at 10 (head suffix _10)): 2.911
Th-T fluorescence, mean of three wells (Fig. 7a) (reading M122, compound at 20 (head suffix _20)): 1.5939
Th-T fluorescence, mean of three wells (Fig. 7a) (reading M122, compound at 50 (head suffix _50)): 0.9934
Th-T fluorescence, mean of three wells (Fig. 7a) (reading M123, compound at 10 (head suffix _10)): 2.8989
Th-T fluorescence, mean of three wells (Fig. 7a) (reading M123, compound at 20 (head suffix _20)): 1.589
Th-T fluorescence, mean of three wells (Fig. 7a) (reading M123, compound at 50 (head suffix _50)): 0.9605
Th-T fluorescence, mean of three wells (Fig. 7a) (reading M124, compound at 10 (head suffix _10)): 2.906
Th-T fluorescence, mean of three wells (Fig. 7a) (reading M124, compound at 20 (head suffix _20)): 1.657
Th-T fluorescence, mean of three wells (Fig. 7a) (reading M124, compound at 50 (head suffix _50)): 0.9345
Th-T fluorescence, mean of three wells (Fig. 7a) (reading M125, compound at 10 (head suffix _10)): 2.918
Th-T fluorescence, mean of three wells (Fig. 7a) (reading M125, compound at 20 (head suffix _20)): 1.601
Th-T fluorescence, mean of three wells (Fig. 7a) (reading M125, compound at 50 (head suffix _50)): 0.9471
Th-T fluorescence, mean of three wells (Fig. 7a) (reading M126, compound at 10 (head suffix _10)): 2.913
Th-T fluorescence, mean of three wells (Fig. 7a) (reading M126, compound at 20 (head suffix _20)): 1.6231
Th-T fluorescence, mean of three wells (Fig. 7a) (reading M126, compound at 50 (head suffix _50)): 0.9219
Th-T fluorescence, mean of three wells (Fig. 7a) (reading M127, compound at 10 (head suffix _10)): 2.92
Th-T fluorescence, mean of three wells (Fig. 7a) (reading M127, compound at 20 (head suffix _20)): 1.639
Th-T fluorescence, mean of three wells (Fig. 7a) (reading M127, compound at 50 (head suffix _50)): 0.9074
Th-T fluorescence, mean of three wells (Fig. 7a) (reading M128, compound at 10 (head suffix _10)): 2.916
Th-T fluorescence, mean of three wells (Fig. 7a) (reading M128, compound at 20 (head suffix _20)): 1.631
Th-T fluorescence, mean of three wells (Fig. 7a) (reading M128, compound at 50 (head suffix _50)): 0.8816
Th-T fluorescence, mean of three wells (time-course reading M97): 1.587
Th-T fluorescence, mean of three wells (time-course reading M98): 1.593
Th-T fluorescence, mean of three wells (time-course reading M99): 1.591
Th-T fluorescence, mean of three wells (time-course reading M100): 1.596
Th-T fluorescence, mean of three wells (time-course reading M101): 1.605
Th-T fluorescence, mean of three wells (time-course reading M102): 1.603
Th-T fluorescence, mean of three wells (time-course reading M103): 1.613
Th-T fluorescence, mean of three wells (time-course reading M104): 1.605
Th-T fluorescence, mean of three wells (time-course reading M105): 1.614
Th-T fluorescence, mean of three wells (time-course reading M106): 1.61
Th-T fluorescence, mean of three wells (time-course reading M107): 1.627
Th-T fluorescence, mean of three wells (time-course reading M108): 1.622
Th-T fluorescence, mean of three wells (time-course reading M109): 1.637
Th-T fluorescence, mean of three wells (time-course reading M110): 1.6366
Th-T fluorescence, mean of three wells (time-course reading M111): 1.648
Th-T fluorescence, mean of three wells (time-course reading M112): 1.658
Th-T fluorescence, mean of three wells (time-course reading M113): 1.641
Th-T fluorescence, mean of three wells (time-course reading M114): 1.648
Th-T fluorescence, mean of three wells (time-course reading M115): 1.646
Th-T fluorescence, mean of three wells (time-course reading M116): 1.651
